Laboratory results reported in patent US20160022701A1, “NEUROACTIVE STEROIDS, COMPOSITIONS, AND USES THEREOF” (SAGE THERAPEUTICS, INC., priority 2013, published 2016).

Target: T1, NMDA receptor (GRIN1/GRIN2A subunits) (Homo sapiens, UniProt Q05586+Q12879)
T1 construct: expressed in transfected cells; host or cells: HEK 293 cells, stably transfected with GRIN1 and transiently transfected with GRIN2A and CD8
Test: NMDA potentiation, whole-cell patch-clamp in HEK cells
Type: cell-based
Settings: currents evoked by 30 μM NMDA and 5.0 μM Glycine, holding potential −80 mV; for activation at 0.1 µM: HEK293, compound 0.1 uM, read-out: NMDA 1a2A (%) Potentiation 0.1 uM; for activation at 1 µM: HEK293, compound 1 uM, read-out: NMDA 1a2A (%) Potentiation 1 uM

T1 sequence (Q12879 23-1464, other chains not shown): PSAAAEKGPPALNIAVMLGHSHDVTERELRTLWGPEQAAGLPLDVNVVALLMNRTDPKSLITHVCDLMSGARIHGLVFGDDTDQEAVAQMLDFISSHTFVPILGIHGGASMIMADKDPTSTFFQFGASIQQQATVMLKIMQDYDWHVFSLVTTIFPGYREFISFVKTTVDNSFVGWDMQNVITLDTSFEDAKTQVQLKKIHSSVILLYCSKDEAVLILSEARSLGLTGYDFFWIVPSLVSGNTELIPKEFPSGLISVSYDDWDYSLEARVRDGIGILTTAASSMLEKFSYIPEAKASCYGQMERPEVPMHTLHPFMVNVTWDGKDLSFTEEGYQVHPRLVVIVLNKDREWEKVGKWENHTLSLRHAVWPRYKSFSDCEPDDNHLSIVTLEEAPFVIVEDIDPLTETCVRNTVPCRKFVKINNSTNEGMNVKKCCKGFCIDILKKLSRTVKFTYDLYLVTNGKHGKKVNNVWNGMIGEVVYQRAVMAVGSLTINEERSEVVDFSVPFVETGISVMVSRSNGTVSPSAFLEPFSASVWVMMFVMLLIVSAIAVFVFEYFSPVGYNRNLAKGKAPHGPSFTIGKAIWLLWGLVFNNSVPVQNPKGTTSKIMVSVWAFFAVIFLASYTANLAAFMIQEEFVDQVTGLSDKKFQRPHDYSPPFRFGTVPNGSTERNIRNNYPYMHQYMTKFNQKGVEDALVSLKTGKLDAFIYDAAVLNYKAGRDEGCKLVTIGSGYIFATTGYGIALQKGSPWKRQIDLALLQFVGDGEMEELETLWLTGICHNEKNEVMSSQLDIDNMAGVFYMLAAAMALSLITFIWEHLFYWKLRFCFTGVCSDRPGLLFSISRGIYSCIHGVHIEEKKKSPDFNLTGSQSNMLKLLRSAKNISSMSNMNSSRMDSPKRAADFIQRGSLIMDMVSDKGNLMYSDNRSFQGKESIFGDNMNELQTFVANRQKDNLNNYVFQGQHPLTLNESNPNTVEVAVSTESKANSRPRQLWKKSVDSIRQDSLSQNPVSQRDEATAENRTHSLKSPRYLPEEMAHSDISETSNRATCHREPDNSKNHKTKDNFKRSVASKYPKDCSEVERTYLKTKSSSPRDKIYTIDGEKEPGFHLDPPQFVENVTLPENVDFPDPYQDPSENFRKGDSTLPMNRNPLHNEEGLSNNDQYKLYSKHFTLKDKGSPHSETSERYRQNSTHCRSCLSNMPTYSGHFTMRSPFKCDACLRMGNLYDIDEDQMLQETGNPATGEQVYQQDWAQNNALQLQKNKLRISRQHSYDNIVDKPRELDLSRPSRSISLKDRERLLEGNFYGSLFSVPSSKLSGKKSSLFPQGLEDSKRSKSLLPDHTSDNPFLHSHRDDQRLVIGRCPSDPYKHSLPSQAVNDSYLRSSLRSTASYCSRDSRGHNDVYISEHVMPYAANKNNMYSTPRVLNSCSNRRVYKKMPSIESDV

## C[C@H](CCC(C)(C)O)[C@H]1CC[C@H]2[C@@H]3CC=C4C[C@@](C)(O)CC[C@]4(C)[C@H]3CC[C@]12C
  activation at 0.1 µM: 128%
  activation at 1 µM: 348%

## C[C@H](CCC(C)(C)O)[C@H]1CC[C@H]2[C@@H]3CC=C4C[C@@H](O)CC[C@@H]4[C@H]3CC[C@]12C
  activation at 0.1 µM: 28%
  activation at 1 µM: 66%

## C[C@H](CCC1(O)CC1)[C@H]1CC[C@H]2[C@@H]3CC=C4C[C@@H](O)CC[C@]4(C)[C@H]3CC[C@]12C
  activation at 0.1 µM: 74%
  activation at 1 µM: 171%

## C[C@H](CC(F)(F)CO)[C@H]1CC[C@H]2[C@@H]3CC=C4C[C@@H](O)CC[C@]4(C)[C@H]3CC[C@]12C
  activation at 0.1 µM: 31%
  activation at 1 µM: 95%

## C[C@H](CCCO)[C@H]1CC[C@H]2[C@@H]3CC=C4C[C@@H](O)CC[C@]4(C)[C@H]3CC[C@]12C
  activation at 0.1 µM: 39%
  activation at 1 µM: 127%

## C[C@H](CCC(C)(C)O)[C@H]1CC[C@H]2[C@@H]3CC[C@H]4C[C@@H](O)CC[C@@H]4[C@H]3CC[C@]12C
  activation at 0.1 µM: 19%
  activation at 1 µM: 44%

## C[C@@H]([C@H]1CC[C@H]2[C@@H]3CC=C4C[C@@H](O)CC[C@]4(C)[C@H]3CC[C@]12C)C(C)(C)O
  activation at 0.1 µM: 4%
  activation at 1 µM: 24%

## CC(O)CC[C@@H](C)[C@H]1CC[C@H]2[C@@H]3CC=C4C[C@@H](O)CC[C@]4(C)[C@H]3CC[C@]12C (stereo partly drawn)
  activation at 0.1 µM: 42%
  activation at 1 µM: 98%

## C[C@H](CCC(C)(C)O)[C@H]1CC[C@H]2[C@@H]3CC=C4C[C@](C)(O)CC[C@]4(C)[C@H]3CC[C@]12C
  activation at 0.1 µM: 13%
  activation at 1 µM: 60%

## C[C@H](CCC(C)(C)N)[C@H]1CC[C@H]2[C@@H]3CC=C4C[C@@H](O)CC[C@]4(C)[C@H]3CC[C@]12C
  activation at 0.1 µM: -8%
  activation at 1 µM: -19%

## CC[C@]1(O)CC[C@@]2(C)C(=CC[C@H]3[C@@H]4CC[C@H]([C@H](C)CCC(C)(C)O)[C@@]4(C)CC[C@@H]32)C1
  activation at 0.1 µM: 181%
  activation at 1 µM: 286%

## CC[C@@]1(O)CC[C@@]2(C)C(=CC[C@H]3[C@@H]4CC[C@H]([C@H](C)CCC(C)(C)O)[C@@]4(C)CC[C@@H]32)C1
  activation at 0.1 µM: 23%
  activation at 1 µM: 139%

## CNC(C)(C)CC[C@@H](C)[C@H]1CC[C@H]2[C@@H]3CC=C4C[C@@H](O)CC[C@]4(C)[C@H]3CC[C@]12C
  activation at 0.1 µM: 25%
  activation at 1 µM: 19%

## C[C@H](CCC(C)(C)O)[C@H]1CC[C@H]2[C@@H]3CC[C@H]4C[C@@](C)(O)CC[C@@H]4[C@H]3CC[C@]12C
  activation at 0.1 µM: 25%
  activation at 1 µM: 114%

## C[C@H](CCC(C)(C)O)[C@H]1CC[C@H]2[C@@H]3CC[C@H]4C[C@](C)(O)CC[C@@H]4[C@H]3CC[C@]12C
  activation at 0.1 µM: 21%
  activation at 1 µM: 52%

## C[C@H](CCC(C)(C)O)[C@H]1CC[C@H]2[C@@H]3CC[C@H]4C[C@](O)(C(F)(F)F)CC[C@@H]4[C@H]3CC[C@]12C
  activation at 0.1 µM: 14%
  activation at 1 µM: 85%

## C[C@H](CCC(C)(C)O)[C@H]1CC[C@H]2[C@@H]3CC[C@H]4C[C@@H](O)CC[C@]4(C)[C@H]3CC[C@]12C
  activation at 0.1 µM: 18%
  activation at 1 µM: 85%

## C[C@H](CCC(C)(C)O)[C@H]1CC[C@H]2[C@@H]3CC[C@H]4C[C@](O)(C(F)(F)F)CC[C@]4(C)[C@H]3CC[C@]12C
  activation at 0.1 µM: 59%
  activation at 1 µM: 172%

## C[C@H](CCC(C)(C)O)[C@H]1CC[C@H]2[C@@H]3CC[C@H]4C[C@](C)(O)CC[C@]4(C)[C@H]3CC[C@]12C
  activation at 0.1 µM: 19%
  activation at 1 µM: 30%

## C[C@H](CCC(C)(C)O)[C@H]1CC[C@H]2[C@@H]3CC[C@H]4C[C@@](C)(O)CC[C@]4(C)[C@H]3CC[C@]12C
  activation at 0.1 µM: 87%

## C[C@H](CC(C)(C)O)[C@H]1CC[C@H]2[C@@H]3CC=C4C[C@@H](O)CC[C@]4(C)[C@H]3CC[C@]12C
  activation at 0.1 µM: -5%
  activation at 1 µM: 27%

## CC(C)[C@H](O)CC[C@@H](C)[C@H]1CC[C@H]2[C@@H]3CC=C4C[C@@H](O)CC[C@]4(C)[C@H]3CC[C@]12C
  activation at 0.1 µM: 82%
  activation at 1 µM: 137%

## C[C@H](CCC(C)(C)O)[C@H]1CC[C@H]2[C@@H]3CC[C@@H]4C[C@@](O)(C(F)(F)F)CC[C@]4(C)[C@H]3CC[C@]12C
  activation at 0.1 µM: 9%
  activation at 1 µM: 18%

## COC[C@@]1(O)CC[C@@]2(C)[C@@H](CC[C@@H]3[C@@H]2CC[C@]2(C)[C@@H]([C@H](C)CCC(C)(C)O)CC[C@@H]32)C1
  activation at 0.1 µM: 8%
  activation at 1 µM: 25%

## COC[C@]1(O)CC[C@@]2(C)[C@@H](CC[C@@H]3[C@@H]2CC[C@]2(C)[C@@H]([C@H](C)CCC(C)(C)O)CC[C@@H]32)C1
  activation at 0.1 µM: 14%
  activation at 1 µM: 110%

## CC(C)(O)CCC[C@H]1CCC2C3CC[C@H]4C[C@@](C)(O)CC[C@]4(C)C3CC[C@@]21C (stereo partly drawn)
  activation at 0.1 µM: 17%
  activation at 1 µM: 105%

## CC(C)(O)CCO[C@H]1CCC2C3CC[C@H]4C[C@@](C)(O)CC[C@]4(C)C3CC[C@@]21C (stereo partly drawn)
  activation at 0.1 µM: 6%
  activation at 1 µM: 27%

## CC(C)(O)COC[C@H]1CCC2C3CC=C4C[C@@](C)(O)CC[C@]4(C)C3CC[C@@]21C (stereo partly drawn)
  activation at 0.1 µM: -5%
  activation at 1 µM: -14%

## CC(CCC(C)(C)O)[C@H]1CC[C@H]2[C@@H]3CC=C4C[C@@H](O)CC[C@]4(C)[C@H]3CC[C@]12C (stereo partly drawn) [Compound 1]
  activation at 0.1 µM: 55%
  activation at 1 µM: 197%
